Laboratory results from patent US8586557B2, “Therapy of p53 mutant colon adenocarcinoma, breast cancer and lung cancer” (Peter MacCallum Cancer Institute, priority 2009, dated 2013).

How the values were obtained:
Format in all cases: cell-based, human
[1] = system: H1299 cells expressing exogenous mutant p53^175; test: Cell cycle analysis and flow cytometry; conditions: H1299 bearing mutant p53^175
Method: (§1) To ascertain the influence of PML levels on the proliferation of HT29 human cancer cells, they were subjected initially to metabolic evaluation using an MTT assay and cell cycle analysis using BrdUrd incorporation. […] This reduction was consistent with the reduced growth rate, but cannot explain the marked difference in cell numbers. It is important to clarify that because the MTT assay involved plating cells of equal number 24 hours in advance of each assay time point, there was continual selection for live cells, which is likely to have masked the accrued effects detected with longer-term plating for the flow cytometric analysis and the colony assay. […] To further substantiate the mutant p53 dependence of cell cycle perturbation induced through PML knockdown, H1299 cells either without, or bearing mutant p53^175, were subjected to cell cycle analysis and flow cytometry (FIG. 10).

p53 null H1299 cells = test: Cell cycle analysis and flow cytometry
Method: as §1

SKBR3 cells = test: Trypan blue dye exclusion after Adriamycin exposure; conditions: SKBR3, Adriamycin 0.5 μg/mL 24 h
Method: Expression of certain p53 mutants confers cells with some resistance to genotoxic stress (Strano et al.). It was therefore important to define whether PML contributes to this biological effect of mutant p53. To this end PML expression was down regulated in SKBR3 cells and cells were exposed to 0.5 μg/ml Adriamycin for 24 h. The effect on cell survival was determined by Trypan blue dye exclusion. Down regulation of PML reduced the numbers of live cells (FIG. 6A(i)), whereas no significant increase in cell death was identified (FIG. 6A(ii)).

Cyclin B2 promoter = test: Luciferase reporter assay pCCAAT-B2LUC in SKBR3; conditions: SKBR3, adriamycin 0.5 μg/ml
Method: (§2) For LacZi-SKBR3 and PML3i-SKBR3, cells (1.5×10^5) were transiently transfected with expression plasmids, reporter constructs, and 0.51 μg of CMV β-galactosidase plasmid (pcDNA3-β-gal vector) as an internal control for transfection efficiency. Precipitates were removed and cells were treated with 0.5 μg/ml ADR for 48 hr. Luciferase activity was assayed on whole-cell extract, as described (Manni et al.). The luciferase values were normalized to β-galactosidase activity and protein content.
(§3) In addition, the effect of PML down-regulation on the transcription of the mutant p53 targets cyclin B2 and Cdc25C, in response to genotoxic stress, was examined in the endogenous mutant p53^175 background of SKBR3 cells. SKBR3 cells were transfected with either PML3i (SEQ ID No: 3) or shp53 (GACTCCAGTGGTAATCTA; SEQ ID No: 10), and luciferase reporter constructs for either Cyclin B2 or Cdc25c. After 24 hours, the cells were exposed to adriamycin (0.5 μg/ml). Down regulation of p53 suppressed the induction of both promoters (FIG. 6B(i) and (ii), respectively). […] The suppression of endogenous cyclin B2 and Cdc25C in response to either p53 or PML down-regulation, under the influence of Adriamycin, was also confirmed at the RNA level by RT-PCR (FIG. 6C).

Cdc25C promoter = test: Luciferase reporter assay pCCAAT-cdc25CLUC in SKBR3; conditions: SKBR3, adriamycin 0.5 μg/ml
Method: as §2, §3

Cdc25C RNA = test: RT-PCR of endogenous mutant p53 target in SKBR3; conditions: SKBR3, under Adriamycin
Excerpt: (§4) Cellular RNA was isolated by Tri-Reagent (MRC Inc.; Cincinnati, Ohio, USA) using the manufacture's instructions, DNA was removed from the samples using DNase treatment (DNA-free kit, Ambion Applied Biosystems; Foster City, Calif., USA), cDNA was synthesized from the purified RNA using M-MLV Reveres Transcription kit (Promega, Madison, Wis., USA). Primers for ribosomal 18S were forward: […] (SEQ ID No: 6); and reverse: […] (SEQ ID No: 7). Primers for PML were forward: CGCCCTGGATAACGTCTTT (SEQ ID No: 8) and reverse: ACTGTGGCTGCTGTCAAGG (SEQ ID No: 9).
as §3

cyclin B2 RNA = test: RT-PCR of endogenous mutant p53 target in SKBR3; conditions: SKBR3, under Adriamycin
Excerpt: as §4, §3

[2] = system: p53 Thr18 phosphorylation; test: Immunoblot of IR-induced p53 Thr18 phosphorylation in NB4 cells; conditions: As2O3 1 μM 4 h, γ-IR 5Gy
Method: (§5) Western blot analysis and immunoprecipitation assays were carried out as previously described (Louria-Hayon et al.). The antibodies used in this study were: anti-human p53 monoclonal antibodies PAb1801 and D01, anti-phospho-p53 Thr^18 polyclonal antibody (Saito et al.), anti-phospho-p53 Ser^20 polyclonal antibody (Cell Signaling Technology, Beverly, Mass., USA); anti-PML monoclonal antibody (clone PML-97; Sigma Chemical Co., St Louis, Mo., USA), anti-GFP (Roche Applied Science, Mannheim, Germany), HRP-conjugated goat anti-mouse IgG, Envision peroxidase anti-mouse or anti-rabbit (Dako Corp., Glostrup, Denmark). The antibodies anti-p53 goat polyclonal antibody (FL-393, AC), anti-p53 rabbit polyclonal antibody (FL-393, FC) and anti-PML polyclonal rabbit antibody ((H-238) sc-5621) were from Santa Cruz Biotechnology, Santa Cruz, Calif., USA.
The inventors have previously shown that PML facilitates the phosphorylation of wt p53 at Ser^20 by check-point kinase 2 (Chk2; Louria-Hayon et al.) and Thr^18 by CK1 (Alsheich-Bartok et al.). These observations raised the surprising possibility that PML may also facilitate the phosphorylation of mutant p53.

PML = test: Western blot of PML knock-down by shRNA
Excerpt: Cell lines in which PML was inducibly knocked-down were generated by co-infection with a lentivirus (pLVTHM) expressing the short hairpin RNA (shRNA) PML target sequence GACCAACAACATCTTCTGC (shPML1; SEQ ID No: 1) or AGATGCAGCTGTATCCAAG (shPML2; SEQ ID No: 2; Tavalai et al.) and a lentivirus expressing a tetracycline repressor (pLV-Ttrkrab-Red). Control cell lines with shLacZ and relevant wobble shPML control sequences GACCAACAATATATTCTGC (w-shPML1; SEQ ID No: 4) and AGATGCAGCTGTATCCAAG (w-shPML2; SEQ ID No: 5) were also generated under the control of a tetracycline repressor. PMLi to target sequence GAGTCGGCCGACTTCTGGT (SEQ ID No: 3; Bruno et al), referred to subsequently as PML3i was transfected into SKBR3 cells using Lipofectamine™ 2000 (Invitrogen Corporation, Carlsbad, Calif. 92008 USA), according to the manufacturer's instructions.
as §5

PML transcript = test: RT-PCR of PML transcript after shRNA knock-down
Excerpt: as §4

HT29 cells [3] = test: Flow cytometry of live/dead cells by propidium iodide exclusion
Method: (§6) Cells were cultured in the absence or presence of doxycyclin (0.2 μg/ml added every second day) for three days then 25,000 cells were plated (with doxycyclin maintainance in culture for continued shRNA induction) and harvested at selected time points. Cells adherent to the plate were released with trypsin-EDTA and combined with those suspended in the culture supernatant prior to flow cytometric analysis of live cell numbers, as discriminated by propidium iodide exclusion using a cell sorter (FACSCalibur) harnessed to CellQuest software (BD Biosciences; San Jose, Calif., USA).

SW480 cells [4] = test: as above
Method: as §6

HT29 cells [5] = test: Colony formation assay; conditions: HT29, doxycycline-induced PML knockdown for 21 d
Method: (§7) Cancer cell lines were plated (700 per well) in 5 cm diameter dishes in the absence or presence of tetracycline (0.2 μg/ml added every second day) for 21 days. At harvest the cells were fixed in ethanol and stained in 0.1% crystal violet.

SW480 cells [6] = test: Colony formation assay; conditions: SW840 as printed, doxycycline-induced PML knockdown for 21 d
Method: as §7

HT29 cells [7] = test: MTT metabolic assay; conditions: HT29, 3, 4 and 11 days of doxycycline exposure, compared with control w-shPML1
Method: Cells either untreated or treated with doxycyclin (0.2 μg/ml) to knock down PML were plated 4000 per well in a 96 well plate and allowed to recover for 24 h. 3-(4,5-Dimethylthiazolyl-2)-2,5-diphenyltetrazolium bromide (MTT, […] final concentration) was added to the wells and the experiment was terminated after an additional 4 h incubation, by aspiration of the liquid and addition of 200 μl of DMSO. The absorbance was read at 540 nm, relative to a reference wavelength of 630 nm (Mosmann et al.).

HT29 cells [8] = test: Cell cycle analysis by BrdUrd incorporation; conditions: for relative number of cells cycling through the S-phase: versus parental line
Method: Cells were plated 2×10^6/10 cm dish and allowed to recover 24 h. BRDU was incorporated (20 μM, 4 h), prior to cell harvest with trypsin-EDTA and fixation in 70% methanol, −20° C. overnight. BRDU detection was undertaken subsequent to sequential rehydration in HCl(2N)/Triton-X(0.5%) then incubation in Boric acid (0.1M), anti-DRDU FITC antibody (BD Biosciences; San Jose, Calif., USA) in PBS/BSA(1%)/Triton-X(0.5%). DNA was labeled using propidium iodide 0.5 mg/ml and incorporation was analyzed using the FACs calibur (BD Biosciences; San Jose, Calif., USA)

[9] = HT29, 3 days of doxycyclin induction
[10] = HT29, 8 days of continuous PML knock down

Row | Substance | G2 [1] | cell cycle profile (p53 null H1299 cells) | Cyclin B2 promoter activity (luciferase) (Cyclin B2 promoter) | Cdc25C promoter activity (luciferase) (Cdc25C promoter) | endogenous Cdc25C RNA level (Cdc25C RNA) | endogenous cyclin B2 RNA level (cyclin B2 RNA) | expression of major PML isoforms (PML; HT29, doxycycline 72 h) | expression of major PML isoforms (PML; SW480, doxycycline 72 h) | relative number of cells cycling through the S-phase (HT29 cells [8]; [9]) | further results
1 | PML3i: siRNA to PML target sequence GAGTCGGCCGACTTCTGGT (Bruno et al), transfected with Lipofectamine 2000 (listed as DNA, chemistry not given here) | striking increase | not disrupted | reduced | reduced | suppression | suppression |  |  |  | cell death (SKBR3 cells): without significant cell death; live cell numbers (SKBR3 cells): slightly reduced
2 | arsenic trioxide [As2O3] |  |  |  |  |  |  |  |  |  | IR-induced phosphorylation of p53 on Thr18 [2]: facilitated
3 | shPML1: lentivirus-expressed, doxycycline-inducible short hairpin RNA to PML target sequence GACCAACAACATCTTCTGC |  |  |  |  |  |  | reduced | reduced | comparable | PML transcript level (PML transcript; HT29, RT-PCR normalized to 18 s): reduction; PML transcript level (PML transcript; SW480, RT-PCR normalized to 18 s): reduction; cell death (HT29 cells [3]; HT29, 7 or 8 days of PML down regulation): modest increase; number of live cells (HT29 cells [3]; HT29, 7 or 8 days of doxycyclin exposure): significantly reduced; cell death (SW480 cells [4]; SW480, 7 or 8 days of PML down regulation): modest increase; number of live cells (SW480 cells [4]; SW480, 7 or 8 days of doxycyclin exposure): significantly reduced; inhibition of colony formation (HT29 cells [5]): > 90%; inhibition of colony formation (SW480 cells [6]): > 70%; rate of metabolism (MTT) (HT29 cells [7]): slightly lower; level of G1 (HT29 cells [8]; [9]): slightly higher; level of G2 (HT29 cells [8]; [9]): lower; BrdUrd incorporation into the S-phase (HT29 cells [8]; [10]): reduced markedly; G1 (HT29 cells [8]; [10]): increases; G2 (HT29 cells [8]; [10]): increases
4 | shp53: RNA interference construct to p53, GACTCCAGTGGTAATCTA [reference compound] | striking increase | not disrupted | suppressed | suppressed | suppression | suppression |  |  |  | 
5 | w-shPML1: wobble shPML control sequence GACCAACAATATATTCTGC [reference compound] |  |  |  |  |  |  | failed to reduce PML levels | failed to reduce PML levels | comparable | 
